# In patent publication US8003649B2 (AstraZeneca AB, priority 2007, dated 2011):
# Target: T1, Androgen Receptor (AR) (Homo sapiens, UniProt P10275, T878A)
# T1 construct: cell based immuno-fluorescence assay using the LNCaP prostate epithelial cell line; endogenous in cells; host or cells: LNCaP clone FGC (ATCC CRL-1740)
# T1 sequence (P10275 1-920 T878A): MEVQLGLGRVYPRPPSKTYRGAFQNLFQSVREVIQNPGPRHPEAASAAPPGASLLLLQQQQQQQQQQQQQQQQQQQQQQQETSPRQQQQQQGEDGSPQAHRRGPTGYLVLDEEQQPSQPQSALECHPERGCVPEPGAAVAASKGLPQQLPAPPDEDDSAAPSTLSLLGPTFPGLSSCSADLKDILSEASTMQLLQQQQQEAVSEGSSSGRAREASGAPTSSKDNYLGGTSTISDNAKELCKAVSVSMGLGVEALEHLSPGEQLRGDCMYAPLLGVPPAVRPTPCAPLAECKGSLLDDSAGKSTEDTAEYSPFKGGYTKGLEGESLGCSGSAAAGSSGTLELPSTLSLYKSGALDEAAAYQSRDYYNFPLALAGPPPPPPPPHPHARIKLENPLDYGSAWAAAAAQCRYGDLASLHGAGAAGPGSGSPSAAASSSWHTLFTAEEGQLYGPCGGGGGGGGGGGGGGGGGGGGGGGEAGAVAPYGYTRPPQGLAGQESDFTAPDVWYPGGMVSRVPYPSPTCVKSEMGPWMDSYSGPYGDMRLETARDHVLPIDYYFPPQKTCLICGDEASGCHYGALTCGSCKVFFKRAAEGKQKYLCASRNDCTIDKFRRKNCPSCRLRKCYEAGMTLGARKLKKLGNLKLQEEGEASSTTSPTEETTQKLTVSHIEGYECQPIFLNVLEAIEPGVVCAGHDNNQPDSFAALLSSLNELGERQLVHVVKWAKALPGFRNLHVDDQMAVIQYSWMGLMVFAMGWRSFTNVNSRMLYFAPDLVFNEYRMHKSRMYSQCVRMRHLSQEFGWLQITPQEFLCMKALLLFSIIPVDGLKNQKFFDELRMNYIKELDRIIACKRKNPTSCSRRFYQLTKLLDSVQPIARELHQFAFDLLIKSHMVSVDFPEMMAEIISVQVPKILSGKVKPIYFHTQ
# Experiment: LNCaP Androgen Receptor Down-regulation Cell Assay (immunofluorescence end point)
# Format: cell-based
# Conditions: LNCaP prostate carcinoma cells, compound incubation 20-22 hours, 50% reduction of the AR signal; read-out: Androgen Receptor Down-regulation Assay (a) IC50/μM
# Summary of the method: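 LNCaP cells in medium with 5% charcoal-stripped FBS were plated overnight, then treated with a compound dilution series for 20-22 h at 37° C. After fixation, permeabilisation and immunostaining, AR-associated green fluorescence was quantified by laser-scanning microplate cytometry; AR down-regulation expressed as IC50 from fitted dose-response curves.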
row,DC50 [µM],Structure (SMILES)
1,5,"FC(F)(F)c1nnc2ccc(N3CC[C@@H](Oc4cccnc4)C3)nn12 [Example 576, 6-[(3R)-3-(pyridin-3-yloxy)pyrrolidin-1-yl]-3-(trifluoromethyl)[1,2,4]triazolo[4,3-b]pyridazine]"
2,5,"FC(F)(F)c1nnc2ccc(N3CC[C@@H](Oc4ccncc4)C3)nn12 [Example 577, 6-[(3R)-3-(pyridin-4-yloxy)pyrrolidin-1-yl]-3-(trifluoromethyl)[1,2,4]triazolo[4,3-b]pyridazine]"
3,2.5,"FC(F)(F)c1nnc2ccc(N3CC[C@@H](Oc4ccccn4)C3)nn12 [Example 578, 6-[(3R)-3-(pyridin-2-yloxy)pyrrolidin-1-yl]-3-(trifluoromethyl)[1,2,4]triazolo[4,3-b]pyridazine]"
4,4.1,FC(F)(F)c1ccc(O[C@@H]2CCN(c3ccc4nnc(C(F)(F)F)n4n3)C2)cc1 [Example 579]
5,2,N#Cc1ccc(O[C@@H]2CCN(c3ccc4nnc(C(F)(F)F)n4n3)C2)cc1 [Example 580]
6,3.3,Fc1ccc(O[C@@H]2CCN(c3ccc4nnc(C(F)(F)F)n4n3)C2)cc1 [Example 581]
7,2.4,COc1ccc(O[C@@H]2CCN(c3ccc4nnc(C(F)(F)F)n4n3)C2)cc1 [Example 582]
8,4.1,FC(F)(F)c1cccc(O[C@@H]2CCN(c3ccc4nnc(C(F)(F)F)n4n3)C2)c1 [Example 583]
9,2.8,N#Cc1cccc(O[C@@H]2CCN(c3ccc4nnc(C(F)(F)F)n4n3)C2)c1 [Example 584]
10,1.5,Fc1cccc(O[C@@H]2CCN(c3ccc4nnc(C(F)(F)F)n4n3)C2)c1 [Example 585]
11,2.1,COc1cccc(O[C@@H]2CCN(c3ccc4nnc(C(F)(F)F)n4n3)C2)c1 [Example 586]
12,> 17,"FC(F)(F)c1nnc2ccc(N3CC[C@H](Oc4cccnc4)C3)nn12 [Example 587, 6-[(3S)-3-(pyridin-3-yloxy)pyrrolidin-1-yl]-3-(trifluoromethyl)[1,2,4]triazolo[4,3-b]pyridazine]"
13,5.3,"FC(F)(F)c1nnc2ccc(N3CC[C@H](Oc4ccncc4)C3)nn12 [Example 588, 6-[(3S)-3-(pyridin-4-yloxy)pyrrolidin-1-yl]-3-(trifluoromethyl)[1,2,4]triazolo[4,3-b]pyridazine]"
14,4.8,"FC(F)(F)c1nnc2ccc(N3CC[C@H](Oc4ccccn4)C3)nn12 [Example 589, 6-[(3S)-3-(pyridin-2-yloxy)pyrrolidin-1-yl]-3-(trifluoromethyl)[1,2,4]triazolo[4,3-b]pyridazine]"
15,20,N#Cc1ccc(O[C@H]2CCN(c3ccc4nnc(C(F)(F)F)n4n3)C2)cc1 [Example 591]
16,9.6,FC(F)(F)c1ccc(O[C@H]2CCN(c3ccc4nnc(C(F)(F)F)n4n3)C2)cc1 [Example 592]
17,7.2,"C[C@H]1CN(Cc2cccnc2)CCN1c1ccc2nnc(C(F)(F)F)n2n1 [Example 593, 6-[(2S)-2-methyl-4-(pyridin-3-ylmethyl)piperazin-1-yl]-3-(trifluoromethyl)[1,2,4]triazolo[4,3-b]pyridazine]"
18,6.8,C[C@H]1CN(Cc2ccc(F)c(F)c2)CCN1c1ccc2nnc(C(F)(F)F)n2n1 [Example 595]
19,4.2,C[C@H]1CN(Cc2cc(F)cc(F)c2)CCN1c1ccc2nnc(C(F)(F)F)n2n1 [Example 596]
20,2.9,C[C@H]1CN(Cc2ccc(F)cc2)CCN1c1ccc2nnc(C(F)(F)F)n2n1 [Example 597]
21,4.2,C[C@H]1CN(Cc2ccc(F)c(C#N)c2)CCN1c1ccc2nnc(C(F)(F)F)n2n1 [Example 598]
22,5.8,"C[C@@H]1CN(Cc2cccnc2)CCN1c1ccc2nnc(C(F)(F)F)n2n1 [Example 599, 6-[(2R)-2-methyl-4-(pyridin-3-ylmethyl)piperazin-1-yl]-3-(trifluoromethyl)[1,2,4]triazolo[4,3-b]pyridazine]"
23,0.85,C[C@@H]1CN(Cc2ccc(C#N)cc2)CCN1c1ccc2nnc(C(F)(F)F)n2n1 [Example 600]
24,2.2,C[C@@H]1CN(Cc2ccc(F)c(F)c2)CCN1c1ccc2nnc(C(F)(F)F)n2n1 [Example 601]
25,1.6,C[C@@H]1CN(Cc2cc(F)cc(F)c2)CCN1c1ccc2nnc(C(F)(F)F)n2n1 [Example 602]
26,3.5,C[C@@H]1CN(Cc2ccc(F)cc2)CCN1c1ccc2nnc(C(F)(F)F)n2n1 [Example 603]
27,1.7,C[C@@H]1CN(Cc2ccc(F)c(C#N)c2)CCN1c1ccc2nnc(C(F)(F)F)n2n1 [Example 604]
28,5,"FC(F)(F)c1nnc2ccc(N3CC=C(c4cccnc4)CC3)nn12 [Example 605, 1′-[3-(trifluoromethyl)[1,2,4]triazolo[4,3-b]pyridazin-6-yl]-1′,2′,3′,6′-tetrahydro-3,4′-bipyridine]"

row,DC50 [µM],Structure (SMILES)
1,2.7,Fc1cnccc1C1=CCN(c2ccc3nnc(C(F)(F)F)n3n2)CC1 [Example 606]
2,7.4,Fc1cncc(C2=CCN(c3ccc4nnc(C(F)(F)F)n4n3)CC2)c1 [Example 607]
3,2.7,CCOC(=O)c1cncc(C2=CCN(c3ccc4nnc(C(F)(F)F)n4n3)CC2)c1 [Example 608]
4,6.6,COc1ncc(C2=CCN(c3ccc4nnc(C(F)(F)F)n4n3)CC2)cc1F [Example 609]
5,3.2,"FC(F)(F)c1nnc2ccc(N3CCC(c4cccnc4)CC3)nn12 [Example 610, 6-(4-pyridin-3-ylpiperidin-1-yl)-3-(trifluoromethyl)[1,2,4]triazolo[4,3-b]pyridazine]"
6,1.6,Fc1cnccc1C1CCN(c2ccc3nnc(C(F)(F)F)n3n2)CC1 [Example 611]
7,> 13,Fc1cncc(C2CCN(c3ccc4nnc(C(F)(F)F)n4n3)CC2)c1 [Example 612]
8,> 12,COc1ncc(C2CCN(c3ccc4nnc(C(F)(F)F)n4n3)CC2)cc1F [Example 614]
9,0.88,"Nc1ccc(C2CCN(c3ccc4nnc(C(F)(F)F)n4n3)CC2)cc1 [Example 615, 4-[1-[3-(trifluoromethyl)[1,2,4]triazolo[4,3-b]pyridazin-6-yl]piperidin-4-yl]aniline]"
10,1.7,"Nc1cccc(C2CCN(c3ccc4nnc(C(F)(F)F)n4n3)CC2)c1 [Example 616, 3-[1-[3-(trifluoromethyl)[1,2,4]triazolo[4,3-b]pyridazin-6-yl]piperidin-4-yl]aniline]"
11,4.3,FC(F)(F)c1nnc2ccc(N3CCC(Oc4cncc(Cl)c4)CC3)nn12 [Example 617]
12,> 4,FC(F)(F)c1nnc2ccc(N3CCC(Oc4ccc(Cl)cn4)CC3)nn12 [Example 618]
13,4.5,FC(F)(F)c1nnc2ccc(N3CCC(Oc4ccncn4)CC3)nn12 [Example 619]
14,2.3,FC(F)(F)c1ccnc(OC2CCN(c3ccc4nnc(C(F)(F)F)n4n3)CC2)c1 [Example 621]
15,7.4,Cc1ccnc(OC2CCN(c3ccc4nnc(C(F)(F)F)n4n3)CC2)n1 [Example 622]
16,0.89,N#Cc1cccc(OC2CCN(c3ccc4nnc(C(F)(F)F)n4n3)CC2)c1 [Example 623]
17,1.4,Fc1ccc(OC2CCN(c3ccc4nnc(C(F)(F)F)n4n3)CC2)cc1 [Example 625]
18,1.1,FC(F)(F)c1cccc(OC2CCN(c3ccc4nnc(C(F)(F)F)n4n3)CC2)c1 [Example 626]
19,1.7,N#Cc1ccc(OC2CCN(c3ccc4nnc(C(F)(F)F)n4n3)CC2)cc1 [Example 627]
20,2.7,N#Cc1ccc(OC2CCN(c3ccc4nnc(C(F)(F)F)n4n3)CC2)nc1 [Example 628]
21,2.4,CN(CCO)C(=O)c1ccc(C2CCN(c3ccc4nnc(C(F)(F)F)n4n3)CC2)cc1 [Example 630]
22,1.1,O=C(NCCN1CCCC1)c1ccc(C2CCN(c3ccc4nnc(C(F)(F)F)n4n3)CC2)cc1 [Example 631]
23,1.9,COCCNC(=O)c1ccc(C2CCN(c3ccc4nnc(C(F)(F)F)n4n3)CC2)cc1 [Example 633]
24,1.1,CN(C)C(=O)c1ccc(C2CCN(c3ccc4nnc(C(F)(F)F)n4n3)CC2)cc1 [Example 634]
25,2.9,O=C(c1ccc(C2CCN(c3ccc4nnc(C(F)(F)F)n4n3)CC2)cc1)N1CCOCC1 [Example 635]
26,20,O=C(c1ccc(C2CCN(c3ccc4nnc(C(F)(F)F)n4n3)CC2)cc1)N1CCNCC1 [Example 636]
27,1.8,CCNC(=O)c1ccc(C2CCN(c3ccc4nnc(C(F)(F)F)n4n3)CC2)cc1 [Example 637]
